# From US12115221B2, “Pickering emulsion stabilized by cellulose nanocrystals from ginkgo seed shells and preparation method thereof” (Jiangnan University, priority 2019, dated 2024)
# Assay: Degradation rate of curcumin on storage
# Format: physicochemical
# Details: storage at room temperature for 7 days
# Procedure: Curcumin was dissolved in an oil phase. The CNCs with low aspect ratio obtained in the Example 6 were diluted to 0.3 wt %, and an emulsion was prepared according to the oil-water ratio of 1:9. Subsequently, high-speed shearing was carried out at 10000 rpm for 2 min using high-speed shearing equipment to obtain a coarse emulsion, and then the coarse emulsion was circulated 4 times at 30 MPa using a high-pressure homogenizer to obtain the final Pickering emulsion. Determination of degradation rate of curcumin: a certain volume of emulsion was taken; the emulsion was mixed with ethanol in a ratio of 1:1; the mixture was centrifuged at 11000 rpm for 5 min; the supernatant was collected; and the absorbance at 426 nm was measured. Formula of degradation rate: Degradation rate (100%)=m1/m2×100, wherein m1 is the mass of curcumin after the emulsion is placed, and m2 is the mass of curcumin before the emulsion is placed.
smiles,measurement,value
"COc1cc(/C=C/C(=O)CC(=O)/C=C/c2ccc(O)c(OC)c2)ccc1O [curcumin in the aqueous solution, Curcumin]",degradation rate of curcumin,80%
